Where two headings read alike, the source gives them in different places.
Tests used:
Format in all cases: cell-based
Nav 1.7 [1] = target: T1, Nav 1.7 (Homo sapiens (Human), UniProt Q15858); assay: Nav 1.7 IWQ in vitro assay (IonWorks Quattro population patch-clamp); conditions: 293 cells stably transfected with Nav 1.7; first part of table; read-out: Nav 1.7 IWQ IC50
How it was run: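 Percent block, measured in duplicate, came from peak minus end-of-pulse current on the 26th −20 mV step, and IC50 was fitted against concentration. Stably transfected 293 cells were recorded in population patch-clamp mode before and after a single test concentration, which was added over 3–8 min while cells were unclamped.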

Nav 1.5 = Nav 1.5 (Homo sapiens (Human), UniProt Q14524); assay: Nav 1.5 in vitro PX assay (PatchXpress whole cell voltage clamp)
How it was run: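 HEK293 cells stably expressing Nav 1.5, whole-cell voltage clamp held at −50 mV; 20 msec test pulses to 0 mV at 0.1 Hz, each preceded by a step to −120 mV.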

Nav 1.7 [2] = target: T1, Nav 1.7; assay: Nav 1.7 in vitro PX assay (PatchXpress whole cell voltage clamp); conditions: 293 cells, human Nav1.7, partially inactivated state; read-out: Nav1.7 PX IC50 IP
How it was run: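 Partially inactivated channel state (holding potential for 20–50% inactivation) probed in human Nav1.7-transfected 293 cells by automated patch clamp, test pulse −10 mV for 20 msec.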

[3] = 293 cells stably transfected with Nav 1.5, first part of table, read-out: Nav 1.5 PX IC50
[4] = 293 cells stably transfected with Nav 1.5, second part of table, read-out: Nav1.5 PX IC50

Chain of Nav 1.5 (Q14524 whole entry): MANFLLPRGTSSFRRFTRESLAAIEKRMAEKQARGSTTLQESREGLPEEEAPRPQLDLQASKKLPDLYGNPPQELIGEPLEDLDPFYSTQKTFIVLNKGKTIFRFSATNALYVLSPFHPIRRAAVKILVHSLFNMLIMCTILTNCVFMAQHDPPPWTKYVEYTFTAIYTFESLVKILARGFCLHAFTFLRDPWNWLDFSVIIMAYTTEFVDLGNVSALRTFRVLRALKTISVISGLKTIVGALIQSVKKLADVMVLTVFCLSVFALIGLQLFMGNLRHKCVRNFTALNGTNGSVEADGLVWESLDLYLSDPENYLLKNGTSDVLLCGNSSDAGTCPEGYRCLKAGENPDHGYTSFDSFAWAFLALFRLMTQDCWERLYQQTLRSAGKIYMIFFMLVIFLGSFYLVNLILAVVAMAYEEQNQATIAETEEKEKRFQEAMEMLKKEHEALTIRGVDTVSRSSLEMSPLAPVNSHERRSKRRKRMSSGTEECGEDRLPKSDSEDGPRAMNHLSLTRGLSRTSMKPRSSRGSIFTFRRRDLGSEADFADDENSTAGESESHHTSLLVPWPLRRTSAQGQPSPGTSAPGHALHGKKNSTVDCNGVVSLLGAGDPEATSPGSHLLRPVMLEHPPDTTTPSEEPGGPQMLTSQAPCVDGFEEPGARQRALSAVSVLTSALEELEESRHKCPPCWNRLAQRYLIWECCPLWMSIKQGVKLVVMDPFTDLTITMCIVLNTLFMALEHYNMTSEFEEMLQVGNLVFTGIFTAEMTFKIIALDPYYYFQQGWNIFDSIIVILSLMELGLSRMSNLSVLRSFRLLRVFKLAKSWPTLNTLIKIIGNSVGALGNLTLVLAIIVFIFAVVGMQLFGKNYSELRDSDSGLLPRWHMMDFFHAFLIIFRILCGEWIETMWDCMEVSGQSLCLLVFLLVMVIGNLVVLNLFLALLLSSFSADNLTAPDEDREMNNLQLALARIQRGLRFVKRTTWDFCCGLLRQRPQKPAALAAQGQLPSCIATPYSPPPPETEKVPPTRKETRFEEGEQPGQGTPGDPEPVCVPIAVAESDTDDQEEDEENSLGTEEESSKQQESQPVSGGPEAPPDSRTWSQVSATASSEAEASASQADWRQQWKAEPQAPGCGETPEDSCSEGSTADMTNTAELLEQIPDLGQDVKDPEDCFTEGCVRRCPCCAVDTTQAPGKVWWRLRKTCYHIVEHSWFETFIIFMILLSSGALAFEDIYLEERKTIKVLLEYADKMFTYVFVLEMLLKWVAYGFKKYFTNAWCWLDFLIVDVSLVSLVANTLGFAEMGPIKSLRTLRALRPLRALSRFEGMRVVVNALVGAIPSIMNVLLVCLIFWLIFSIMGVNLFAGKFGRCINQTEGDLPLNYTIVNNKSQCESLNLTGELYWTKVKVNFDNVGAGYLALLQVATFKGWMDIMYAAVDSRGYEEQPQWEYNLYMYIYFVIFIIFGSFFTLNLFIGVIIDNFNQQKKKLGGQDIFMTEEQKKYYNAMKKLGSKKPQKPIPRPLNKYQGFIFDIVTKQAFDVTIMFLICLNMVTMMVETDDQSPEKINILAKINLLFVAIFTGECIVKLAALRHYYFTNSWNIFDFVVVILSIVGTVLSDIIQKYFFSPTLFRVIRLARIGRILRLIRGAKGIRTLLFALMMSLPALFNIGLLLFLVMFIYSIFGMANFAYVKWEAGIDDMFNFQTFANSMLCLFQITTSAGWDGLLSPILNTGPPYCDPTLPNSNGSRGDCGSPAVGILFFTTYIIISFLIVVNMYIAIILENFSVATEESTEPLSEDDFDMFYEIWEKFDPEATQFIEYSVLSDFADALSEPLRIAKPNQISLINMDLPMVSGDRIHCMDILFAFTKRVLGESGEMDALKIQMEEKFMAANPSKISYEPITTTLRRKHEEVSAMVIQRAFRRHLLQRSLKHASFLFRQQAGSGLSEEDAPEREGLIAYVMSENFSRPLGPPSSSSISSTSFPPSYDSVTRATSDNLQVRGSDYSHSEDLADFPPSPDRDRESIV
T1 sequence (Q15858 whole entry): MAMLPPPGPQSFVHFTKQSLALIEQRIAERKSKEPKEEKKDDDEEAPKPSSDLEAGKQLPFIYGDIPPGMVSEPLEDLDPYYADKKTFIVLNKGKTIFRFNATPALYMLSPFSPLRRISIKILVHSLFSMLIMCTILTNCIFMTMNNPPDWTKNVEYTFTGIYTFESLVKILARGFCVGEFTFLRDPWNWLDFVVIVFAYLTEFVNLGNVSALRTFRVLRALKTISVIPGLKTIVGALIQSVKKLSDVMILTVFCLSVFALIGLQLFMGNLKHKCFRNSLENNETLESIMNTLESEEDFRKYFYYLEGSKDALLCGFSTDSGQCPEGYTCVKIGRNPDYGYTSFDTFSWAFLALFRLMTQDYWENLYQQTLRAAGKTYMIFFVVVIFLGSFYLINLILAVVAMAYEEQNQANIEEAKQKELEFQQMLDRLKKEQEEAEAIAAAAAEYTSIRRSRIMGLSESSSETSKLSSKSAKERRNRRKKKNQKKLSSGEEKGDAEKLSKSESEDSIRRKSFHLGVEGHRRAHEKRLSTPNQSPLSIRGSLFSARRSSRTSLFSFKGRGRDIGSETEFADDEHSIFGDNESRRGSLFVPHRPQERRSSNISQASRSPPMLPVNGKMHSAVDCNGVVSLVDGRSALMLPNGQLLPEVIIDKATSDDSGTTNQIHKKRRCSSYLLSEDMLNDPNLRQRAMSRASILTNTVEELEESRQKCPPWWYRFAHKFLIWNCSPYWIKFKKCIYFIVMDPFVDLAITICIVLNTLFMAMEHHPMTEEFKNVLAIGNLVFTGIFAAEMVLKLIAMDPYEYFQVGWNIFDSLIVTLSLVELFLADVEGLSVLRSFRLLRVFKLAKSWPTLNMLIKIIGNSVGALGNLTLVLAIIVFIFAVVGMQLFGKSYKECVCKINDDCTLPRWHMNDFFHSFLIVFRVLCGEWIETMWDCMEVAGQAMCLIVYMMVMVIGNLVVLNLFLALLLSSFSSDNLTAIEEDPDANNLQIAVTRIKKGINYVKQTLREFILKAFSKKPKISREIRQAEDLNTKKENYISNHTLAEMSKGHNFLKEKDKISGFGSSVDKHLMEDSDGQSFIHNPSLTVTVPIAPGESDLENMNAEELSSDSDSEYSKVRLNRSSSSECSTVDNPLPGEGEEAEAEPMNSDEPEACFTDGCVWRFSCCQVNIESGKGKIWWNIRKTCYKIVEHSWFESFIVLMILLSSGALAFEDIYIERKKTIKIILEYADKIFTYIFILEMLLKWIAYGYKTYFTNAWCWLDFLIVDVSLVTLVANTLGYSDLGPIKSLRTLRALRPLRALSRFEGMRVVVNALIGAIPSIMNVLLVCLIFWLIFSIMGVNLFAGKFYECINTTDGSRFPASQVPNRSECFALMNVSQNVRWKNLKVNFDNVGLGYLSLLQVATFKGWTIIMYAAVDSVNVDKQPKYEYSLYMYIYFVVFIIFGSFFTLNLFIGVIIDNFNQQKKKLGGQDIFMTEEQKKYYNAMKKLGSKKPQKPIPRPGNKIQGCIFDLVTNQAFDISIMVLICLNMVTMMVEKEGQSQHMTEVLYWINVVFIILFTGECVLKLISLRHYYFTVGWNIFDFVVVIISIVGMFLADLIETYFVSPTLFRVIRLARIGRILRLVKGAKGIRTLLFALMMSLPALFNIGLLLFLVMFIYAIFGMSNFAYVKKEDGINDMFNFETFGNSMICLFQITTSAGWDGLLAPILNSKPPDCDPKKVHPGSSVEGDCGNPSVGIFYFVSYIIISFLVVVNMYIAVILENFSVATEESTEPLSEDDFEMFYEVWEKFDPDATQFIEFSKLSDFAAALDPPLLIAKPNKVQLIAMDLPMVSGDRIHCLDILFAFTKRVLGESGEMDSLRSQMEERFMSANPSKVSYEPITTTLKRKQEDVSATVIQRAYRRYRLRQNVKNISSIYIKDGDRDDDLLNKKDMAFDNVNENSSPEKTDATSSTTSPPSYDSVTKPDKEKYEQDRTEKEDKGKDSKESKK

O=S(=O)(Nc1ncns1)c1ccc2c(-c3ccc(F)cc3Cl)cccc2c1 [Example 5]
IC50 (Nav 1.7 [1]): 170 nM
IC50 (Nav 1.5; [3]): 23800 nM

O=S(=O)(Nc1ncns1)c1ccc2c(-c3ccc(C(F)(F)F)cc3-c3ccncc3)nccc2c1 [Example 53, 1-(2-(PYRIDIN-4-YL)-4-(TRIFLUOROMETHYL)PHENYL)-N-(1,2,4-THIADIAZOL-5-YL)ISOQUINOLINE-6-SULFONAMIDE]
IC50 (Nav 1.7 [1]): 70 nM
IC50 (Nav 1.5; [3]): > 30000 nM

O=S(=O)(Nc1ncns1)c1ccc2c(-c3ccccc3Cl)cccc2c1 [Example 8]
IC50 (Nav 1.7 [1]): 200 nM
IC50 (Nav 1.5; [3]): 21300 nM

O=S(=O)(Nc1ncns1)c1ccc2c(-c3ccc(Cl)cc3C3=CCNCC3)cccc2c1 [Example 26]
IC50 (Nav 1.7 [1]): 20 nM
IC50 (Nav 1.5): > 30000 nM

O=S(=O)(Nc1ncns1)c1ccc2c(-c3ccc(Cl)cc3C(F)(F)F)cccc2c1 [Example 39]
IC50 (Nav 1.7 [1]): 1540 nM
IC50 (Nav 1.5; [3]): 7770 nM

O=S(=O)(Nc1nccs1)c1ccc2c(-c3ccc(C(F)(F)F)cc3Cl)nccc2c1 [Example 51, 1-(2-CHLORO-4-(TRIFLUOROMETHYL)PHENYL)-N-(THIAZOL-2-YL)ISOQUINOLINE-6-SULFONAMIDE]
IC50 (Nav 1.7 [1]): 110 nM
IC50 (Nav 1.5; [3]): > 30000 nM

CCOc1cc(C(F)(F)F)ccc1-c1cccc2cc(S(=O)(=O)Nc3ncns3)ccc12 [Example 10]
IC50 (Nav 1.7 [1]): 50 nM
IC50 (Nav 1.5; [3]): 6680 nM

COc1cc(C(F)(F)F)ccc1-c1cccc2cc(S(=O)(=O)Nc3ncns3)ccc12 [Example 12]
IC50 (Nav 1.7 [1]): 10 nM
IC50 (Nav 1.5; [3]): 11600 nM

O=S(=O)(Nc1ncns1)c1ccc2c(-c3ccc(Cl)cc3-c3ccncc3)cccc2c1 [Example 28]
IC50 (Nav 1.7 [1]): 50 nM
IC50 (Nav 1.5; [3]): > 30000 nM

Cn1nccc1-c1cc(C(F)(F)F)ccc1-c1nccc2cc(S(=O)(=O)Nc3ncns3)ccc12 [Example 54, 1-(2-(1-METHYL-1H-PYRAZOL-5-YL)-4-(TRIFLUOROMETHYL)PHENYL)-N-(1,2,4-THIADIAZOL-5-YL)ISOQUINOLINE-6-SULFONAMIDE]
IC50 (Nav 1.7 [1]): 40 nM
IC50 (Nav 1.5; [3]): > 30000 nM

O=S(=O)(Nc1ncns1)c1ccc2c(-c3ccc(C(F)(F)F)cc3-c3ccncc3)cccc2c1 [Example 2]
IC50 (Nav 1.7 [1]): 30 nM
IC50 (Nav 1.5; [3]): > 30000 nM

O=S(=O)(Nc1ncns1)c1ccc2c(N3CCOC(c4ccccc4)C3)cccc2c1 (single isomer, unassigned) [14 (isomer 2), 5-(2-phenylmorpholino)-N-(1,2,4-thiadiazol-5-yl)naphthalene-2-sulfonamide]
IC50 (Nav 1.7 [1]): 1800 nM
IC50 (Nav 1.5; [3]): > 30000 nM

O=S(=O)(Nc1ncns1)c1ccc2c(-c3ccc(OC(F)(F)F)cc3Cl)cccc2c1 [Example 4]
IC50 (Nav 1.7 [1]): 900 nM
IC50 (Nav 1.5; [3]): 10900 nM

O=S(=O)(Nc1ncns1)c1ccc2c(-c3ccc(Cl)cc3Cl)cccc2c1 [Example 40]
IC50 (Nav 1.7 [1]): 1970 nM
IC50 (Nav 1.5; [3]): > 30000 nM

Cc1cc(C(F)(F)F)ccc1-c1cccc2cc(S(=O)(=O)Nc3ncns3)ccc12 [Example 11]
IC50 (Nav 1.7 [1]): 80 nM
IC50 (Nav 1.5; [3]): 5070 nM

COc1ccccc1-c1ccnc2cc(S(=O)(=O)Nc3ncns3)ccc12 [Example 320, 4-(2-METHOXYPHENYL)-N-(1,2,4-THIADIAZOL-5-YL)QUINOLINE-7-SULFONAMIDE 2,2,2-TRIFLUOROACETATE]
IC50 (Nav 1.7 [2]): 155 nM
IC50 (Nav 1.5; [4]): > 30000 nM

COc1ccccc1-c1ccc(-c2nccc3cc(S(=O)(=O)Nc4ccncn4)ccc23)c(OC)c1 [Example 466, 1-(2′,3-DIMETHOXY-[1,1′-BIPHENYL]-4-YL)-N-(PYRIMIDIN-4-YL)ISOQUINOLINE-6-SULFONAMIDE]
IC50 (Nav 1.7 [2]): 227 nM
IC50 (Nav 1.5; [4]): > 30000 nM

COc1cc(-c2ccc(F)cc2F)ccc1-c1nccc2cc(S(=O)(=O)Nc3ccncn3)ccc12 [Example 445, 1-(2′,4′-DIFLUORO-3-METHOXY-[1,1′-BIPHENYL]-4-YL)-N-(PYRIMIDIN-4-YL)ISOQUINOLINE-6-SULFONAMIDE]
IC50 (Nav 1.7 [2]): 218 nM
IC50 (Nav 1.5; [4]): > 30000 nM

COc1cc(Cl)c(C#N)cc1-c1nccc2cc(S(=O)(=O)Nc3ncns3)ccc12 [Example 336, 1-(4-CHLORO-5-CYANO-2-METHOXYPHENYL)-N-(1,2,4-THIADIAZOL-5-YL)ISOQUINOLINE-6-SULFONAMIDE]
IC50 (Nav 1.7 [2]): 156 nM
IC50 (Nav 1.5; [4]): > 30000 nM

COc1cc(Oc2ccc(F)cc2)ccc1-c1nccc2cc(S(=O)(=O)Nc3ccncn3)ccc12 [Example 462, 1-(4-(4-FLUOROPHENOXY)-2-METHOXYPHENYL)-N-(PYRIMIDIN-4-YL)ISOQUINOLINE-6-SULFONAMIDE]
IC50 (Nav 1.7 [2]): 203 nM
IC50 (Nav 1.5; [4]): > 30000 nM

COc1cc(-c2cccc(F)c2)c(Cl)cc1-c1ncnc2cc(S(=O)(=O)Nc3ncns3)ccc12 [Example 521, 4-(2-CHLORO-3′-FLUORO-5-METHOXY-[1,1′-BIPHENYL]-4-YL)-N-(1,2,4-THIADIAZOL-5-YL)QUINAZOLINE-7-SULFONAMIDE]
IC50 (Nav 1.7 [2]): 19 nM
IC50 (Nav 1.5; [4]): 4750 nM

COc1cc(C(F)F)c(F)cc1-c1ncnc2cc(S(=O)(=O)Nc3nccs3)ccc12 [Example 512, 4-(4-(DIFLUOROMETHYL)-5-FLUORO-2-METHOXYPHENYL)-N-(THIAZOL-2-YL)QUINAZOLINE-7-SULFONAMIDE]
IC50 (Nav 1.7 [2]): 234 nM
IC50 (Nav 1.5; [4]): > 30000 nM

COc1ccccc1-c1ncc(F)c2cc(S(=O)(=O)Nc3ncns3)ccc12 [Example 393, 4-FLUORO-1-(2-METHOXYPHENYL)-N-(1,2,4-THIADIAZOL-5-YL)ISOQUINOLINE-6-SULFONAMIDE]
IC50 (Nav 1.7 [2]): 304 nM
IC50 (Nav 1.5; [4]): > 30000 nM

COc1cc(Oc2cccc(F)c2)ccc1-c1nccc2cc(S(=O)(=O)Nc3ccncn3)ccc12 [Example 464, 1-(4-(3-FLUOROPHENOXY)-2-METHOXYPHENYL)-N-(PYRIMIDIN-4-YL)ISOQUINOLINE-6-SULFONAMIDE]
IC50 (Nav 1.7 [2]): 380 nM
IC50 (Nav 1.5; [4]): > 30000 nM

Cc1cc(Cl)ccc1-c1ccnc2cc(S(=O)(=O)Nc3ncns3)ccc12 [Example 322]
IC50 (Nav 1.7 [2]): 333 nM
IC50 (Nav 1.5; [4]): > 30000 nM

COc1cc(Cl)ccc1-c1nccc2cc(S(=O)(=O)Nc3ncns3)ccc12 [Example 368, 1-(4-CHLORO-2-METHOXYPHENYL)-N-(1,2,4-THIADIAZOL-5-YL)ISOQUINOLINE-6-SULFONAMIDE]
IC50 (Nav 1.7 [2]): 122 nM
IC50 (Nav 1.5; [4]): > 30000 nM

COc1cc(-c2cccc(F)c2)ccc1-c1nccc2cc(S(=O)(=O)Nc3ncns3)ccc12 [Example 369, 1-(3′-FLUORO-3-METHOXY-[1,1′-BIPHENYL]-4-YL)-N-(1,2,4-THIADIAZOL-5-YL)ISOQUINOLINE-6-SULFONAMIDE]
IC50 (Nav 1.7 [2]): 58 nM
IC50 (Nav 1.5; [4]): > 30000 nM

COc1cc(-c2ccc(Cl)c(C)c2)ccc1-c1nccc2cc(S(=O)(=O)Nc3ccncn3)ccc12 [Example 493, 1-(4′-CHLORO-3-METHOXY-3′-METHYL-[1,1′-BIPHENYL]-4-YL)-N-(PYRIMIDIN-4-YL)ISOQUINOLINE-6-SULFONAMIDE]
IC50 (Nav 1.7 [2]): 86 nM
IC50 (Nav 1.5; [4]): > 30000 nM

COc1cc(-c2cccc(F)c2)c(Cl)cc1-c1nccc2cc(S(=O)(=O)Nc3ccncn3)ccc12 [Example 333, 1-(2-CHLORO-3′-FLUORO-5-METHOXY-[1,1′-BIPHENYL]-4-YL)-N-(PYRIMIDIN-4-YL)ISOQUINOLINE-6-SULFONAMIDE]
IC50 (Nav 1.7 [2]): 75 nM
IC50 (Nav 1.5; [4]): 20300 nM

COc1ccc(-c2ccc(-c3nccc4cc(S(=O)(=O)Nc5ccncn5)ccc34)c(OC)c2)cc1 [Example 468, 1-(3,4′-DIMETHOXY-[1,1′-BIPHENYL]-4-YL)-N-(PYRIMIDIN-4-YL)ISOQUINOLINE-6-SULFONAMIDE]
IC50 (Nav 1.7 [2]): 359 nM
IC50 (Nav 1.5; [4]): > 30000 nM

COc1cc(-c2cccc(F)c2)c(Cl)cc1-c1ncnc2cc(S(=O)(=O)Nc3ccncn3)ccc12 [Example 523, 4-(2-CHLORO-3′-FLUORO-5-METHOXY-[1,1′-BIPHENYL]-4-YL)-N-(PYRIMIDIN-4-YL)QUINAZOLINE-7-SULFONAMIDE]
IC50 (Nav 1.7 [2]): 65 nM
IC50 (Nav 1.5; [4]): 6590 nM

From patent US9012443B2 (Amgen Inc., priority 2011, dated 2015)
